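In this assay, cells in 96-well plates receive the compound at five concentrations for 48 hours. Endpoints are linearly interpolated between the surrounding concentrations. GI50 = concentration required for 50% inhibition of growth.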 Activity calls are given as the source filed them. Cut-off read from the data, not from the text of the source: active = GI50 up to about 1.1 µM and inactive = higher.
Columns and labels:
Assay in all cases: inhibition of tumour cell growth, NCI panel, 48 h
786-0 = test system: 786-0
A549 = test system: A549
ACHN = test system: ACHN
CAKI-1 = test system: CAKI-1
CCRF-CEM = test system: CCRF-CEM
COLO 205 = test system: COLO 205
DMS-114 = test system: DMS-114
DMS-273 = test system: DMS-273
EKVX = test system: EKVX
HCC 2998 = test system: HCC 2998
HCT-116 = test system: HCT-116
HCT-15 = test system: HCT-15
HL-60 = test system: HL-60
HOP-62 = test system: HOP-62
HT-29 = test system: HT-29
IGROV-1 = test system: IGROV-1
K562 = test system: K562
KM-20L2 = test system: KM-20L2
KM12 = test system: KM12
LOX IMVI = test system: LOX IMVI
M14 = test system: M14
M19-MEL = test system: M19-MEL
MOLT-4 = test system: MOLT-4
Malme-3M = test system: Malme-3M
NCI-H226 = test system: NCI-H226
NCI-H23 = test system: NCI-H23
NCI-H460 = test system: NCI-H460
NCI-H522 = test system: NCI-H522
OVCAR-3 = test system: OVCAR-3
OVCAR-4 = test system: OVCAR-4
OVCAR-5 = test system: OVCAR-5
OVCAR-8 = test system: OVCAR-8
RPMI-8226 = test system: RPMI-8226
SF-268 = test system: SF-268
SF-295 = test system: SF-295
SF-539 = test system: SF-539
SK-MEL-28 = test system: SK-MEL-28
SK-MEL-2 = test system: SK-MEL-2
SK-OV-3 = test system: SK-OV-3
SN12C = test system: SN12C
SNB-19 = test system: SNB-19
SNB-78 = test system: SNB-78
SR = test system: SR
SW-620 = test system: SW-620
TK-10 = test system: TK-10
U-251 = test system: U-251
UACC-257 = test system: UACC-257
UO-31 = test system: UO-31
A498 = test system: A498
BT-549 = test system: BT-549
DU-145 = test system: DU-145
HOP-92 = test system: HOP-92
Hs-578T = test system: Hs-578T
MCF7 = test system: MCF7
MDA-MB-231 = test system: MDA-MB-231
MDA-MB-435 = test system: MDA-MB-435
MDA-N = test system: MDA-N
NCI/ADR-RES = test system: NCI/ADR-RES
PC-3 = test system: PC-3
RXF 393 = test system: RXF 393
SK-MEL-5 = test system: SK-MEL-5
SNB-75 = test system: SNB-75
T47D = test system: T47D
UACC-62 = test system: UACC-62

Measured: GI50

Cc1cnc2c(C)ccc([N+](=O)[O-])c2c1NCCCN(C)C
> 100 µM: HCT-15
inactive: 786-0 > 100 µM | A549 > 100 µM | ACHN > 100 µM | CAKI-1 > 100 µM | CCRF-CEM > 100 µM | COLO 205 > 100 µM | DMS-114 > 100 µM | DMS-273 > 100 µM | EKVX > 100 µM | HCC 2998 > 100 µM | HCT-116 > 100 µM | HL-60 > 100 µM | HOP-62 > 100 µM | HT-29 > 100 µM | IGROV-1 > 100 µM | K562 > 100 µM | KM-20L2 > 100 µM | KM12 > 100 µM | LOX IMVI > 100 µM | M14 > 100 µM | M19-MEL > 100 µM | MOLT-4 > 100 µM | Malme-3M 73.6 µM | NCI-H226 > 100 µM | NCI-H23 31.5 µM | NCI-H460 > 100 µM | NCI-H522 > 100 µM | OVCAR-3 > 100 µM | OVCAR-4 > 100 µM | OVCAR-5 > 100 µM | OVCAR-8 > 100 µM | RPMI-8226 > 100 µM | SF-268 > 100 µM | SF-295 > 100 µM | SF-539 > 100 µM | SK-MEL-28 > 100 µM | SK-MEL-2 > 100 µM | SK-OV-3 75.3 µM | SN12C > 100 µM | SNB-19 > 100 µM | SNB-78 43.7 µM | SR > 100 µM | SW-620 > 100 µM | TK-10 > 100 µM | U-251 > 100 µM | UACC-257 > 100 µM | UO-31 > 100 µM

Nc1c(-c2cccc3ccccc23)c2ccc([N+](=O)[O-])cc2c(=O)n1-c1nc2ccccc2s1
6.38 µM: HCT-15
inactive: 786-0 5.64 µM | A498 7.66 µM | A549 3.32 µM | ACHN 3.16 µM | BT-549 14.3 µM | CAKI-1 5.15 µM | CCRF-CEM 1.33 µM | COLO 205 18.1 µM | DU-145 7.57 µM | EKVX 1.94 µM | HCC 2998 7.14 µM | HCT-116 5.13 µM | HL-60 2.18 µM | HOP-62 7.21 µM | HOP-92 3.23 µM | HT-29 5.02 µM | Hs-578T 2.98 µM | IGROV-1 3.41 µM | K562 6.93 µM | KM12 3.84 µM | LOX IMVI 4.4 µM | M14 11.7 µM | MCF7 1.5 µM | MDA-MB-231 5.37 µM | MDA-MB-435 9.38 µM | MDA-N 7.13 µM | MOLT-4 3.03 µM | Malme-3M 3.58 µM | NCI-H226 2.41 µM | NCI-H23 2.11 µM | NCI-H460 3.1 µM | NCI-H522 2.22 µM | NCI/ADR-RES 2.26 µM | OVCAR-3 3.94 µM | OVCAR-4 9.82 µM | OVCAR-5 14.3 µM | OVCAR-8 2.16 µM | PC-3 4.84 µM | RXF 393 6.04 µM | SF-268 3.18 µM | SF-295 5.53 µM | SF-539 2.2 µM | SK-MEL-28 14.1 µM | SK-MEL-2 3.82 µM | SK-MEL-5 6.73 µM | SK-OV-3 2.75 µM | SN12C 6.27 µM | SNB-19 8.07 µM | SR 12.5 µM | SW-620 11.2 µM | T47D 3.37 µM | TK-10 4.42 µM | U-251 3.71 µM | UACC-257 3.41 µM | UACC-62 5.6 µM | UO-31 4.1 µM
active: RPMI-8226 1.02 µM | SNB-75 0.875 µM
